Where “and” joins values, the source holds several entries; their conditions need not be identical. Identical values can stand only once.
What was measured:
mouse RXFP1 = molecular target: T1, mouse RXFP1 (Mus musculus, UniProt Q6R6I7); experiment: HTRF cAMP counter-screen in HEK293T cells expressing mouse RXFP1; assay type: cell-based; conditions: mouse RXFP1, positive control, experiments (1)-(3)
T1 construct: FLAG (N); expressed in transfected cells
T1 sequence (Q6R6I7 1-758): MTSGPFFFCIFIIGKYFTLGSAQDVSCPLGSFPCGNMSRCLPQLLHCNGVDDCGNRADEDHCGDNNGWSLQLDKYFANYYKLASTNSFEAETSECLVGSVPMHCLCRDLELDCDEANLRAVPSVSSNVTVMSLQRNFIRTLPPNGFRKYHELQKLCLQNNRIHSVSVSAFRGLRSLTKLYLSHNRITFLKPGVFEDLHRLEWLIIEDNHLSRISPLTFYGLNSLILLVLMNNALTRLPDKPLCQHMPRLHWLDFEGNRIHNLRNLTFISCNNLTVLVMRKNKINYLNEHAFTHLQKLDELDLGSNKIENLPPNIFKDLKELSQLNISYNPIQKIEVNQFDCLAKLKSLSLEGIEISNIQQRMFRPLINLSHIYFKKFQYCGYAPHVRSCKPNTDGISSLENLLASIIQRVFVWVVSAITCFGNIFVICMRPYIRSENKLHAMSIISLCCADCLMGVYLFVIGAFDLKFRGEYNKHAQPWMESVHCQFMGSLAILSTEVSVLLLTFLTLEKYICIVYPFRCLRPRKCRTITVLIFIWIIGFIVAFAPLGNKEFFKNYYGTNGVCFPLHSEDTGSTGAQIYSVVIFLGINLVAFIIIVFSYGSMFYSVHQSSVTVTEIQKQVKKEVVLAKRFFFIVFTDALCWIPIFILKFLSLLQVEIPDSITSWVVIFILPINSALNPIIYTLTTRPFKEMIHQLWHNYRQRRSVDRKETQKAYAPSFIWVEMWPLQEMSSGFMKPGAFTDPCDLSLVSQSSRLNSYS
Procedure: (§1) The HTRF Gs dynamic cAMP assay kit (CisBio, Bedford, MA) was used to measure intracellular cAMP accumulation in HEK293T cells (ATCC, Manassas, VA)[56]. […] The cell stock was verified mycoplasma free and authenticated by ATCC. Transient transfection was accomplished by treating cells in a 6-well plate with a mixture of 2 μg plasmid and 6 μL Lipofectamine 2000 (Invitrogen, Waltham, MA) per manufacturer’s protocol and incubating overnight. For cAMP measurement in 96-well format, HEK293T cells stably transfected with human RXFP2 (HEK-RXFP2), human RXFP1 (HEK-RXFP1), mouse Rxfp1 (HEK-Rxfp1) or transiently transfected with human RXFP1-RXFP2 chimeric receptors were seeded between 7500 and 30,000 cells per well, depending on cell line responsiveness, in serum-free DMEM medium and incubated overnight at 37 °C, 5% CO2. After 18 h, cells were treated with a titration of compound, 2 μM forskolin, or DMSO vehicle. Control wells were also treated with a titration of INSL3 (Phoenix Pharmaceuticals, Burlingame, CA) or human recombinant relaxin 2 (Peprotech, Cranbury, NJ). For the RXFP2 antagonist experiment, cells were co-treated with 0.28 μM compound or 30 nM INSL3 and a titration of the INSL3 B dimer antagonist[38],[39]. For the INSL3 allosteric modulation experiment, cells were co-treated with 0.025, 0.0025, or 0.00025 μM of compound and a titration of INSL3. Cells were incubated for 1 h at 37 °C, 5% CO2, and then kit cAMP-d2 and anti-cAMP antibody were added per manufacturer protocol. Plates were incubated for 1 h at room temperature and the signal was read on a CLARIOstar plate reader (BMG Labtech, Ortenberg, Germany) at 665 and 620 nm emission wavelengths. […]
(§2) receptors. HTRF cAMP counter-screen of RXFP2 agonists in HEK293T cells expressing a human RXFP1 and b mouse RXFP1. Relaxin 2 was used as positive control for RXFP1 receptor activation. Results are expressed as mean ± SEM of 3

human RXFP1 = molecular target: T2, human RXFP1 (Homo sapiens, UniProt Q9HBX9); experiment: HTRF cAMP counter-screen in HEK293T cells expressing human RXFP1; assay type: cell-based; conditions: human RXFP1, positive control, experiments (1)-(3)
T2 construct: FLAG (N); expressed in transfected cells
T2 sequence (Q9HBX9 1-757): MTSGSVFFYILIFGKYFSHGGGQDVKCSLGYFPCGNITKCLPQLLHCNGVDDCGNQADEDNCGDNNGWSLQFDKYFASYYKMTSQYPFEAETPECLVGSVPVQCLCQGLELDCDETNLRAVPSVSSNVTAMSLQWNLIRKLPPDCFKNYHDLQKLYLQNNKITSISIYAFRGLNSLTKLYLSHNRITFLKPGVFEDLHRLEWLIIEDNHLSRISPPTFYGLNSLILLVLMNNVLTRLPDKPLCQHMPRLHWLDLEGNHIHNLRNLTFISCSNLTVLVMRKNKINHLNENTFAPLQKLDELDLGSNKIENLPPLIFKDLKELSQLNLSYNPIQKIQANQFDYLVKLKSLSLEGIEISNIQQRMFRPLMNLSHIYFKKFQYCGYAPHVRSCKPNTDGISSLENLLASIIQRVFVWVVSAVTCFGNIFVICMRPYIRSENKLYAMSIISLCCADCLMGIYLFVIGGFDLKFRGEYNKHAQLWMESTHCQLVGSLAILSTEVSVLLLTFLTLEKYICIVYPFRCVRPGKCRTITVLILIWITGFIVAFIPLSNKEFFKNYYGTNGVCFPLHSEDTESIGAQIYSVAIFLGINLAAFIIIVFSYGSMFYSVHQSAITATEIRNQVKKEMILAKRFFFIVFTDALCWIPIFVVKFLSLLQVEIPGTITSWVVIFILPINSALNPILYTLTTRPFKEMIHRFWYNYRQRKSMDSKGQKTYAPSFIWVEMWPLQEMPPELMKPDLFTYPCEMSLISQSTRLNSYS
Procedure: as §1, §2

[1] = molecular target: chimera RXFP2-1 (extracellular domain of RXFP2, transmembrane domain of RXFP1) (human); set-up: EC50 of the cAMP response (HTRF cAMP assay, transiently transfected HEK293T cells): unit not given beside the values

Row | % Eff (cAMP) (mouse RXFP1; Log [M] -7) | % Eff (cAMP) (mouse RXFP1; Log [M] -8) | % Eff (cAMP) (mouse RXFP1; Log [M] -9) | % Eff (cAMP) (mouse RXFP1; Log [M] -10) | % Eff (cAMP) (mouse RXFP1; Log [M] -11) | % Eff (cAMP) (human RXFP1; Log [M] -7) | % Eff (cAMP) (human RXFP1; Log [M] -8) | % Eff (cAMP) (human RXFP1; Log [M] -9) | % Eff (cAMP) (human RXFP1; Log [M] -11) | EC50 of the cAMP response (HTRF cAMP assay, transiently transfected HEK293T cells) [1] | Emax of the cAMP response (HTRF cAMP assay, transiently transfected HEK293T cells; normalized to 2 µM FSK as 100% efficacy) [1] | Substance
1 | 488.966% and 468.543% and 521.705% | 318.502% and 312.701% and 407.269% | 105.124% and 102.88% and 64.6466% | 7.396% and 8.915% and 6.254% | 0.7539% and 1.08% and 0.2993% | 514.186% and 485.16% and 431.341% | 600.088% and 494.195% and 523.956% | 370.096% and 250.531% and 374.784% | -0.2294% and 1.737% and 3.775% | – | – | Relaxin
2 | – | – | – | – | – | – | – | – | – | 0.74 | 92.3 | insulin-like factor 3 peptide (INSL3) (ligand)

Reference: article PMC9636434, “Discovery of small molecule agonists of the Relaxin Family Peptide Receptor 2” (Communications Biology, 2022)
